# Read-outs that look alike come from different tables or passages of the source.
# Assays:
# [1] = system: subject with bi-lateral GA; test: Phase Ib study of intravitreal FA in patients with geographic atrophy; assay type: in vivo, human; settings: single subject, 1 mg intravitreal
# Procedure: A. Phase Ib, Study of Safety and Tolerability of Intravitreal Fludrocortisone Acetate (FA) and Triamcinolone (TA) in Patients with Geographic Atrophy (GA)
# The identical protocol will be followed with TA.
# Part 1 involves a single participant to assess safety and tolerability of 1 mg/0.1 mL FA. This participant will be followed for up to 28 days and reviewed by a safety review committee prior to the recruitment of a further 2 participants treated with 1 mg/0.1 mL FA totalling in 3 participants in the first cohort.
# Visit 2 (Baseline)—All subjects: Unless specified, all ophthalmic procedures (including imaging) are to be performed on the Study eye only. 1. Verify that all inclusion/exclusion criteria are met, including the determination of eligibility by the PI. 2. Obtain information on any changes in medical health and/or the use of concomitant medications. 3. Collect vital signs pre- and post-dose. Vital signs will be measured within 1 hour prior to dosing for the pre-dose time point. Post-dose vital signs readings will be performed within 30 minutes after dosing. 4. Perform BCVA. 5. Perform LL-BCVA. 6. Perform a complete ophthalmic exam including slit-lamp exam of the cornea, iris, anterior chamber, lens (LOCS III if any opacity on the lens noted) and aqueous reaction (cells and flare), dilated fundus exam of the vitreous and retina and IOP measurement. 7. Perform the IVT injection of fludrocortisone acetate. 8. Monitor the study eye within 15 minutes' post injection. 9. Monitor for adverse events.
# FIGS. 2 to 6 show the results of injection of fludrocortisone into one subject according to the Phase lb study.
# [2] = system: New Zealand albino rabbits; settings: cited from earlier work; for ERG change in the other groups: intravitreal 2 mg, 1 mg, 400 μg/0.1 ml; for ERG change in the other groups / ERG change: two weeks after injection; for intravitreal (vitreous) haemorrhage: intravitreal 4 mg/0.1 mL; for ERG change: intravitreal 4 mg/0.1 ml
# [3] = system: monkey choroidal endothelial cells (CECs); settings: PMA-stimulated CECs; FA compared with TA; cited from earlier work
# [4] = system: New Zealand albino rabbits; test: Intravitreal toxicology of fludrocortisone acetate in rabbit eyes; assay type: in vivo; settings: based on vitreous volume, man 4 mL vs rabbit 1.5 mL
# From the text: The eyes were enucleated and examined with light microscopy.
# Investigative Ophthalmology & Visual Science, 2006. 47(13): p. 4281-4281 ]. […] Their eyes were enucleated and examined with light microscopy.
compound,measurement,setting,value
"CC(=O)OCC(=O)[C@@]1(O)CC[C@H]2[C@@H]3CCC4=CC(=O)CC[C@]4(C)[C@@]3(F)[C@@H](O)C[C@@]21C [Fludrocortisone acetate, 9-α-Fiuoro-11 β. 17 α, 21-trihydroxy-4-pregnene-3, 20 dione acetate]",external eye exam,[1],all normal
same,slit lamp biomicroscopy,[1],"all normal, apart from a previous scar on the anterior chamber"
same,vitreous haze grading,[1],absent
same,toxicity,"[1]; left eye, day 28",no evidence of toxicity
same,visual acuity (VA),"[1]; left eye, day 28",improved visual acuity
same,histological examination of retinal sections (light microscopy),[2]; 400 μg to 4 mg per eye,no evidence of toxicity or vacuolization except for one eye in the 4mg group
same,time by which all aggregates disappeared from the vitreous,[2]; 2-mg group,22 ± 8 days
same,time by which all aggregates disappeared from the vitreous,[2]; 4-mg group,33 ± 7 days
same,IOP,[2]; all groups,normal
same,ERG change in the other groups,[2],normal ERG
same,ERG change in the other groups,[2]; listed as FA,no other problems of reductions in ERG
same,intravitreal (vitreous) haemorrhage,[2],1
same,intravitreal (vitreous) haemorrhage,[2]; listed as FA,Two eyes at 4 mg/0.1 ml experienced intravitreal haemorrhage
same,ERG change,[2],one eye injected with 4 mg/0.1 ml exhibited decreases in ERG output
same,ERG change,[2]; listed as FA,reduced ERG
same,"signs of retinal toxicity on slit-lamp examination, indirect ophthalmoscopy, or light microscopy","[2]; rabbit, in vivo",no signs of retinal toxicity
same,tolerability in animal toxicology studies,"[2]; rabbit, in vivo",well-tolerated
same,"inflammation in anterior or posterior segment (slit lamp biomicroscopy, indirect ophthalmoscopy)","[2]; up to 40 days of observations, all treatment groups",did not show any evidence of significant inflammation
same,restoring quiescent morphology,[3],superior to TA
same,human equivalent dose,[4],67 mg/eye every 4 weeks

# Source: patent US20210069213A1, “COMPOSITION AND METHOD OF TREATMENT FOR DRY A.M.D. (AGE RELATED MACULAR DEGENERATION)” (EYE CO PTY LTD, priority 2018, published 2021)
